Species: Rattus norvegicus
Experiment: Open TG-GATES - Regimen: Single
Type: toxicity, organism-based, Sprague-Dawley
Set-up: regimen Single, gender Male, age 6 weeks
Settings: in vivo, po, route gavage; for gamma-GTP / A/G / ALP / AST / BUN / CRE / Ca / Cl / DBIL / GLC / K / LDH / Na / PL / RALB / TBIL / TC / TG / ALT / IP / TP: tissue Plasma; for APTT / Bas / Eos / Fbg / Hb / Ht / Lym / MCH / MCHC / MCV / Mono / Neu / PT / Plat / RBC / Ret / WBC: tissue Blood; for KIDNEY_L / KIDNEY_R / KIDNEY_TOTAL: tissue Kidney; for LIVER: tissue Liver
[1] = 15 mg/kg, 3 h, dose level Middle
[2] = 15 mg/kg, 6 h, dose level Middle

COc1ccc2c(c1)c(CC(=O)O)c(C)n2C(=O)c1ccc(Cl)cc1 [INDOMETHACIN]
gamma-GTP (5 mg/kg, 9 h, dose level High): 2.6 IU/L | A/G (5 mg/kg, 9 h, dose level Low): 1.7 | ALP (5 mg/kg, 9 h, dose level Low): 793.6 IU/L | AST (5 mg/kg, 9 h, dose level Low): 72.6 IU/L | BUN (5 mg/kg, 9 h, dose level Low): 9.8 mg/dL | CRE (5 mg/kg, 9 h, dose level Low): 0.3 mg/dL | Ca (5 mg/kg, 9 h, dose level Low): 10.3 mg/dL | Cl (5 mg/kg, 9 h, dose level Low): 104 meq/L | DBIL (5 mg/kg, 9 h, dose level Low): 0.076 mg/dL | GLC (5 mg/kg, 9 h, dose level Low): 197.6 mg/dL | K (5 mg/kg, 9 h, dose level Low): 3.8 meq/L | LDH (5 mg/kg, 9 h, dose level Low): 194 IU/L | Na (5 mg/kg, 9 h, dose level Low): 141.4 meq/L | PL (5 mg/kg, 9 h, dose level Low): 137 mg/dL | RALB (5 mg/kg, 9 h, dose level Low): 3.3 g/dL | TBIL (5 mg/kg, 9 h, dose level Low): 0.1 mg/dL | TC (5 mg/kg, 9 h, dose level Low): 76.2 mg/dL | TG (5 mg/kg, 9 h, dose level Low): 31.8 mg/dL | gamma-GTP (5 mg/kg, 9 h, dose level Low): 1.2 IU/L | TERMINAL_BW (5 mg/kg, 24 h, dose level High): 211.4 g | TERMINAL_BW (5 mg/kg, 24 h, dose level Low): 236.2 g | APTT (5 mg/kg, 24 h, dose level High): 17.1 s | Bas (5 mg/kg, 24 h, dose level High): 0% | Eos (5 mg/kg, 24 h, dose level High): 0.8% | Fbg (5 mg/kg, 24 h, dose level High): 232.2 mg/dL | Hb (5 mg/kg, 24 h, dose level High): 13 g/dL | Ht (5 mg/kg, 24 h, dose level High): 39.2% | Lym (5 mg/kg, 24 h, dose level High): 78% | MCH (5 mg/kg, 24 h, dose level High): 21.9 pg | MCHC (5 mg/kg, 24 h, dose level High): 33.2% | MCV (5 mg/kg, 24 h, dose level High): 65.9 fL | Mono (5 mg/kg, 24 h, dose level High): 8.2% | Neu (5 mg/kg, 24 h, dose level High): 13.4% | PT (5 mg/kg, 24 h, dose level High): 12.2 s | Plat (5 mg/kg, 24 h, dose level High): 100.7 x10_4/uL | RBC (5 mg/kg, 24 h, dose level High): 595.4 x10_4/ul | Ret (5 mg/kg, 24 h, dose level High): 9.8% | WBC (5 mg/kg, 24 h, dose level High): 116.2 x10_2/uL | APTT (5 mg/kg, 24 h, dose level Low): 18.6 s | Bas (5 mg/kg, 24 h, dose level Low): 0.8% | Fbg (5 mg/kg, 24 h, dose level Low): 249.8 mg/dL | Hb (5 mg/kg, 24 h, dose level Low): 13.2 g/dL | Ht (5 mg/kg, 24 h, dose level Low): 38.2% | Lym (5 mg/kg, 24 h, dose level Low): 65.8% | MCH (5 mg/kg, 24 h, dose level Low): 21.3 pg | MCHC (5 mg/kg, 24 h, dose level Low): 34.5% | MCV (5 mg/kg, 24 h, dose level Low): 61.7 fL | Mono (5 mg/kg, 24 h, dose level Low): 3.2% | Neu (5 mg/kg, 24 h, dose level Low): 29.2% | PT (5 mg/kg, 24 h, dose level Low): 11.6 s | Plat (5 mg/kg, 24 h, dose level Low): 117.7 x10_4/uL | RBC (5 mg/kg, 24 h, dose level Low): 619.8 x10_4/ul | Ret (5 mg/kg, 24 h, dose level Low): 7.2% | WBC (5 mg/kg, 24 h, dose level Low): 111.3 x10_2/uL | KIDNEY_L (5 mg/kg, 24 h, dose level High): 1 g | KIDNEY_R (5 mg/kg, 24 h, dose level High): 1 g | KIDNEY_TOTAL (5 mg/kg, 24 h, dose level High): 1.9 g | KIDNEY_TOTAL (5 mg/kg, 24 h, dose level Low): 2.1 g | LIVER (5 mg/kg, 24 h, dose level High): 9.9 g | LIVER (5 mg/kg, 24 h, dose level Low): 11.3 g | A/G (5 mg/kg, 24 h, dose level High): 2 | ALP (5 mg/kg, 24 h, dose level High): 879 IU/L | ALT (5 mg/kg, 24 h, dose level High): 40.4 IU/L | AST (5 mg/kg, 24 h, dose level High): 70.2 IU/L | BUN (5 mg/kg, 24 h, dose level High): 15.4 mg/dL | CRE (5 mg/kg, 24 h, dose level High): 0.5 mg/dL | Ca (5 mg/kg, 24 h, dose level High): 10.4 mg/dL | Cl (5 mg/kg, 24 h, dose level High): 106.2 meq/L | DBIL (5 mg/kg, 24 h, dose level High): 0.006 mg/dL | GLC (5 mg/kg, 24 h, dose level High): 197.2 mg/dL | IP (5 mg/kg, 24 h, dose level High): 8.4 mg/dL | K (5 mg/kg, 24 h, dose level High): 4.9 meq/L | LDH (5 mg/kg, 24 h, dose level High): 146 IU/L | Na (5 mg/kg, 24 h, dose level High): 138.8 meq/L | PL (5 mg/kg, 24 h, dose level High): 133.4 mg/dL | RALB (5 mg/kg, 24 h, dose level High): 3.7 g/dL | TBIL (5 mg/kg, 24 h, dose level High): 0.3 mg/dL | TC (5 mg/kg, 24 h, dose level High): 77.4 mg/dL | TG (5 mg/kg, 24 h, dose level High): 65.2 mg/dL | TP (5 mg/kg, 24 h, dose level High): 5.6 g/dL | gamma-GTP (5 mg/kg, 24 h, dose level High): 1.4 IU/L | A/G (5 mg/kg, 24 h, dose level Low): 1.5 | ALP (5 mg/kg, 24 h, dose level Low): 830.8 IU/L | ALT (5 mg/kg, 24 h, dose level Low): 35.8 IU/L | AST (5 mg/kg, 24 h, dose level Low): 70 IU/L | BUN (5 mg/kg, 24 h, dose level Low): 13.2 mg/dL | CRE (5 mg/kg, 24 h, dose level Low): 0.4 mg/dL | Ca (5 mg/kg, 24 h, dose level Low): 10.7 mg/dL | Cl (5 mg/kg, 24 h, dose level Low): 103.2 meq/L | DBIL (5 mg/kg, 24 h, dose level Low): 0.06 mg/dL | GLC (5 mg/kg, 24 h, dose level Low): 189.4 mg/dL | IP (5 mg/kg, 24 h, dose level Low): 7.6 mg/dL | K (5 mg/kg, 24 h, dose level Low): 3.9 meq/L | LDH (5 mg/kg, 24 h, dose level Low): 234.2 IU/L | Na (5 mg/kg, 24 h, dose level Low): 141.6 meq/L | PL (5 mg/kg, 24 h, dose level Low): 144.6 mg/dL | RALB (5 mg/kg, 24 h, dose level Low): 3.3 g/dL | TBIL (5 mg/kg, 24 h, dose level Low): 0.1 mg/dL | TC (5 mg/kg, 24 h, dose level Low): 73.6 mg/dL | TG (5 mg/kg, 24 h, dose level Low): 82.8 mg/dL | TERMINAL_BW [1]: 223.8 g | APTT [1]: 19.8 s | Bas [1]: 0.6% | Eos [1]: 0.4% | Fbg [1]: 232.4 mg/dL | Hb [1]: 13.8 g/dL | Ht [1]: 37.8% | Lym [1]: 74.8% | MCH [1]: 22.8 pg | MCHC [1]: 36.5% | MCV [1]: 62.5 fL | Mono [1]: 3.4% | Neu [1]: 19.6% | PT [1]: 11.6 s | Plat [1]: 132.9 x10_4/uL | RBC [1]: 605.2 x10_4/ul | Ret [1]: 8.5% | WBC [1]: 104.8 x10_2/uL | KIDNEY_L [1]: 0.9 g | KIDNEY_R [1]: 0.9 g | KIDNEY_TOTAL [1]: 1.9 g | LIVER [1]: 10.3 g | A/G [1]: 1.5 | ALP [1]: 827 IU/L | ALT [1]: 36.2 IU/L | AST [1]: 73.6 IU/L | BUN [1]: 13 mg/dL | CRE [1]: 0.4 mg/dL | Ca [1]: 10.8 mg/dL | Cl [1]: 102.6 meq/L | DBIL [1]: 0.072 mg/dL | GLC [1]: 209.2 mg/dL | IP [1]: 9.8 mg/dL | K [1]: 4.1 meq/L | LDH [1]: 219.2 IU/L | Na [1]: 141.2 meq/L | PL [1]: 151.6 mg/dL | RALB [1]: 3.3 g/dL | TBIL [1]: 0.1 mg/dL | TC [1]: 84.8 mg/dL | TG [1]: 64.8 mg/dL | TP [1]: 5.5 g/dL | gamma-GTP [1]: 1 IU/L | TERMINAL_BW [2]: 220.7 g | APTT [2]: 19 s | Bas [2]: 0% | Eos [2]: 0.6% | Fbg [2]: 224 mg/dL

Source: ChEMBL document CHEMBL3885861, “Open TG-GATES”
